Source: patent publication US20100240656A1, “COMPOUNDS AS HSP90 INHIBITORS” (ORYZON GENOMICS, S.A., priority 2007, published 2010)

How the values were obtained:
MCF-7 = assay: Cell proliferation by MTT method, MCF-7; assay type: cell-based; settings: Homo sapiens
Method: The objective of this study was to determine the influence of the compounds on cell proliferation of K-562, A-549, MCF-7, HeLa, WI-38 by MTT method. The compounds were tested over a three-fold dilution series in triplicate for the determination of EC50 of their influence on cell proliferation.
The assay is based on the cleavage of the yellow tetrazolium salt MTT into purple formazan by metabolically active cells. The MTT formazan crystals are insoluble in aqueous solution, but may be solubilized by adding the 10% SDS, then incubating the plates overnight in a humidified atmosphere (e.g., 37° C., 5% CO2). The solubilized formazan product can be photometrically quantitated using Tecan reader. An increase in the number of living cells results in an increase of total metabolic activity, which leads to a stronger color formation.
EC50 values are defined as the compound concentration at which 50% of reaction product is formed.
Test compounds were dissolved to 10 mM in 100% DMSO.
In the day of the experiment cells were seeded into all wells of 96-well plates. Serial dilution of compounds was performed in a separate 96-well plate at 20 times final assay concentration in cell culture medium (DMEM with 10% Fetal Bovine Serum). 5 μl of compound was transferred to 96-well plate containing seeded cells in cell culture medium (final total volume=100 μl). Cells were cultured in the presence of the respective test substances in the 96-well plate at 37° C. in a humidified 5% CO2 incubator for a certain period of time (24, 72 or 120 hours). Then 5 μL of thiazolyl blue tetrazolium bromide (MTT) 5 mg/mL was added to the cells and the cells were reincubated 4 hours in a humidified 5% CO2 incubator. Then 10% SDS was added into the each well. The reaction product was quantified by measuring the absorbance at 568 nm using a scanning multiwell spectrophotometer Tecan. The developed color and thereby the absorbance values directly correlate to the number of the living cells.
The data were analyzed using Microsoft Excel 2000, GraphPad Prism 3.03.
K 562 (human, chronic myelongenous leukemia), A 549 (human, lung carcinoma), MCF-7 (human, breast adenocarcinoma), Hela (human, cervix, carcinoma, epitheloid), WI-38 (human, embryonic lung)

HCT-116 = assay: Cell growth inhibition by AlamarBlue method, HCT-116; assay type: cell-based; settings: Homo sapiens; HCT-116, 72 hours; read-out: Cell growth inhibition values (EC50) obtained with AlamarBlue method
Method: The human colon cancer cell line HCT-116 and the human breast cell lines MCF-7 and SKBr3 were from the American Type Culture Collection (ATCC; CCL-247, HTB-22 and HTB-30, respectively).
The HCT-116 and SKBr3 cell lines were maintained in DMEM GlutaMAX (Invitrogen) supplemented with 10% fetal calf serum and the MCF-7 cell line was maintained in RPMI1640 GlutaMAX (Invitrogen) containing 1 mM sodium pyruvate and 10% fetal calf serum. Cells were grown in a humidified incubator at 37° C. in 5% CO2
Cells were plated in 96-well plates (Costar, 3596) at a density of 6000 cells/well in 50 μL medium 24 h before addition of the compounds. Compounds were then added in 8 concentrations, each in triplicate (dilution series of 1 to 3). To do so, a compound-dilution plate at 200× the screening concentrations was prepared in DMSO 100% (Sigma, 154938). Then, 1.7 μL of the 200× diluted compounds were transferred to a new plate and 170 μL of media were added and mixed with the pipette (plate at 2×). Columns 11 and 12 of this plate (controls) were filled with 1% DMSO in cell media (i.e. 1.7 μL DMSO and 170 μL cell media). Finally, 50 μL of this intermediate plate at 2× were transferred to the plate containing the seeded cells and slowly shaken manually. Cells were grown as described above. AlamarBlue viability assay (Biosource, Invitrogen, DAL1100) was performed 72 hours later following manufacturer's protocol. In brief, AlamarBlue diluted in media was added to cells to have a 5% solution (a 2× solution was prepared in media and 100 μL of this solution were transferred to each well, i.e. final volume of 200 μL). Cells were incubated at 37° C., 3 hours and at room temperature for an additional 30 min. Cells with no compound and, cells with no compound and lysed with triton X-100 (30 μL/well added 10 min before treatment with AlamarBlue) were used as controls (6 replicates of each). Fluorescence was monitored at 530 nm excitation and 590 nm emission wavelengths. Results were quantified using ELx800 Universal Microplate Reader (Bio-Tek Instruments, Inc.). EC50 were calculated as the dose of compound required to inhibit cell growth by 50%.

[1] = MCF7, 24 h, MCF-7, incubation 1 day
[2] = MCF7, 72 h, MCF-7, incubation 3 days
[3] = MCF7, 120 h, MCF-7, incubation 5 days

SMILES	EC50 (MCF-7; [1])	EC50 (MCF-7; [2])	EC50 (MCF-7; [3])	EC50 (HCT-116)
NCCCCCn1c(Sc2cc3c(cc2I)OCO3)nc(C(N)=O)c1N [Example 6, 5-amino-1-(5-amino-pentyl)-2-(6-iodo-benzo[1,3]dioxol-5-ylsulfanyl)-1H-imidazole-4-carboxamide]	> 100 µM	17.3 µM	16.7 µM	23.7 µM
CCCCn1c(Sc2cc3c(cc2I)OCO3)nc(C(N)=O)c1N [Example 10, 5-amino-1-butyl-2-(6-iodo-benzo[1,3]dioxol-5-ylsulfanyl)-1H-imidazole-4-carboxamide]	> 100 µM	10.1 µM	11.7 µM	18 µM
